Test results as given in patent US9029391B2 (priority 2011, dated 2015).

System: HIV
Assay: MT4 Assay (anti-HIV activity)
Format: cell-based
Conditions: Human immunodeficiency virus 1, 96 h, read-out: HIV MT4 Assay IC50, HTLV-1 transformed cell line MT-4, cell titer glo, 10 point dose response curve
Method in brief: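 IC50 values were fitted to 10-point dose-response series (3-4-fold dilutions, range >1000-fold), normalized to no-compound control. CellTiter-Glo read-out was taken after 96 hours in HTLV-1-transformed MT-4 cells. Cytotoxicity was measured in parallel under identical conditions.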

Row | SMILES | IC50 [nM]
1 | Cc1c(-c2c(C(OC(C)(C)C)C(=O)O)n(C)c(=O)c3cc(OCc4cc(F)ccc4F)ccc23)ccc2c1CCCO2 (centres unmarked) [Example 95, 2-(tert-butoxy)-2-{7-[(2,5-difluorophenyl)methoxy]-2-methyl-4-(5-methyl-3,4-dihydro-2H-1-benzopyran-6-yl)-1-oxo-1,2-dihydroisoquinolin-3-yl}acetic acid] | 90
2 | Cc1c(-c2c(C(OC(C)(C)C)C(=O)O)n(C)c(=O)c3cc(OCc4cccc(F)c4F)ccc23)ccc2c1CCCO2 (centres unmarked) [Example 96, 2-(tert-butoxy)-2-{7-[(2,3-difluorophenyl)methoxy]-2-methyl-4-(5-methyl-3,4-dihydro-2H-1-benzopyran-6-yl)-1-oxo-1,2-dihydroisoquinolin-3-yl}acetic acid] | 70
3 | Cc1c(-c2c(C(OC(C)(C)C)C(=O)O)n(C)c(=O)c3cc(OCc4cccnc4)ccc23)ccc2c1CCCO2 (centres unmarked) [Example 97, 2-(tert-butoxy)-2-[2-methyl-4-(5-methyl-3,4-dihydro-2H-1-benzopyran-6-yl)-1-oxo-7-(pyridin-3-ylmethoxy)-1,2-dihydroisoquinolin-3-yl]acetic acid] | 370
4 | Cc1c(-c2c(C(OC(C)(C)C)C(=O)O)n(C)c(=O)c3cc(OCc4c(F)cccc4F)ccc23)ccc2c1CCCO2 (centres unmarked) [Example 98, 2-(tert-butoxy)-2-{7-[(2,6-difluorophenyl)methoxy]-2-methyl-4-(5-methyl-3,4-dihydro-2H-1-benzopyran-6-yl)-1-oxo-1,2-dihydroisoquinolin-3-yl}acetic acid] | 90
5 | Cc1c(-c2c(C(OC(C)(C)C)C(=O)O)n(C)c(=O)c3cc(OCc4c(F)cc(F)cc4F)ccc23)ccc2c1CCCO2 (centres unmarked) [Example 99, 2-(tert-butoxy)-2-[2-methyl-4-(5-methyl-3,4-dihydro-2H-1-benzopyran-6-yl)-1-oxo-7-[(2,4,6-trifluorophenyl)methoxy]-1,2-dihydroisoquinolin-3-yl]acetic acid] | 130
6 | Cc1c(-c2c(C(OC(C)(C)C)C(=O)O)n(C)c(=O)c3cc(OCc4ccc(F)cn4)ccc23)ccc2c1CCCO2 (centres unmarked) [Example 100, 2-(tert-butoxy)-2-{7-[(5-fluoropyridin-2-yl)methoxy]-2-methyl-4-(5-methyl-3,4-dihydro-2H-1-benzopyran-6-yl)-1-oxo-1,2-dihydroisoquinolin-3-yl}acetic acid] | 270
7 | Cc1c(-c2c(C(OC(C)(C)C)C(=O)O)n(C)c(=O)c3cc(OCc4ccc(F)cn4)ccc23)cc(F)c2c1CCCO2 (centres unmarked) [Example 101, 2-(tert-butoxy)-2-[4-(8-fluoro-5-methyl-3,4-dihydro-2H-1-benzopyran-6-yl)-7-[(5-fluoropyridin-2-yl)methoxy]-2-methyl-1-oxo-1,2-dihydroisoquinolin-3-yl]acetic acid] | 290
8 | Cc1cccnc1COc1ccc2c(-c3ccc4c(c3C)CCCO4)c(C(OC(C)(C)C)C(=O)O)n(C)c(=O)c2c1 (centres unmarked) [Example 102, 2-(tert-butoxy)-2-[2-methyl-4-(5-methyl-3,4-dihydro-2H-1-benzopyran-6-yl)-7-[(3-methylpyridin-2-yl)methoxy]-1-oxo-1,2-dihydroisoquinolin-3-yl]acetic acid] | 330
9 | Cc1c(-c2c(C(OC(C)(C)C)C(=O)O)n(C)c(=O)c3cc(OCc4ccccc4F)ccc23)ccc2c1CCCO2 (centres unmarked) [Example 103, 2-(tert-butoxy)-2-{7-[(2-fluorophenyl)methoxy]-2-methyl-4-(5-methyl-3,4-dihydro-2H-1-benzopyran-6-yl)-1-oxo-1,2-dihydroisoquinolin-3-yl}acetic acid] | 50
10 | Cc1c(-c2c(C(OC(C)(C)C)C(=O)O)n(C)c(=O)c3cc(OCc4cccc(F)c4)ccc23)ccc2c1CCCO2 (centres unmarked) [Example 104, 2-(tert-butoxy)-2-{7-[(3-fluorophenyl)methoxy]-2-methyl-4-(5-methyl-3,4-dihydro-2H-1-benzopyran-6-yl)-1-oxo-1,2-dihydroisoquinolin-3-yl}acetic acid] | 60
11 | Cc1nc(COc2ccc3c(-c4cc(F)c5c(c4C)CCCO5)c([C@H](OC(C)(C)C)C(=O)O)n(C)c(=O)c3c2)c(C)o1 [Example 105, (2S)-2-(tert-butoxy)-2-{7-[(dimethyl-1,3-oxazol-4-yl)methoxy]-4-(8-fluoro-5-methyl-3,4-dihydro-2H-1-benzopyran-6-yl)-2-methyl-1-oxo-1,2-dihydroisoquinolin-3-yl}acetic acid] | 100
12 | COc1ccc2c(-c3cc(F)c4c(c3C)CCCO4)c([C@H](OC(C)(C)C)C(=O)O)n(C)c(=O)c2c1 [Example 106, (2S)-2-(tert-butoxy)-2-[4-(8-fluoro-5-methyl-3,4-dihydro-2H-1-benzopyran-6-yl)-7-methoxy-2-methyl-1-oxo-1,2-dihydroisoquinolin-3-yl]acetic acid] | 40
13 | Cc1c(-c2c([C@H](OC(C)(C)C)C(=O)O)n(C)c(=O)c3cc(OCc4ccc(F)cc4F)ccc23)cc(F)c2c1CCCO2 [Example 107, (2S)-2-(tert-butoxy)-2-{7-[(2,4-difluorophenyl)methoxy]-4-(8-fluoro-5-methyl-3,4-dihydro-2H-1-benzopyran-6-yl)-2-methyl-1-oxo-1,2-dihydroisoquinolin-3-yl}acetic acid] | 20
14 | Cc1c(-c2c([C@H](OC(C)(C)C)C(=O)O)n(C)c(=O)c3cc(OCc4ccc(F)c(F)c4)ccc23)ccc2c1CCCO2 [Example 108, (2S)-2-(tert-butoxy)-2-{7-[(3,4-difluorophenyl)methoxy]-2-methyl-4-(5-methyl-3,4-dihydro-2H-1-benzopyran-6-yl)-1-oxo-1,2-dihydroisoquinolin-3-yl}acetic acid] | 30
15 | Cc1c(-c2c([C@H](OC(C)(C)C)C(=O)O)n(C)c(=O)c3cc(OCc4cccs4)ccc23)cc(F)c2c1CCCO2 [Example 109, (2S)-2-(tert-butoxy)-2-[4-(8-fluoro-5-methyl-3,4-dihydro-2H-1-benzopyran-6-yl)-2-methyl-1-oxo-7-(thiophen-2-ylmethoxy)-1,2-dihydroisoquinolin-3-yl]acetic acid] | 20
16 | Cc1c(-c2c([C@H](OC(C)(C)C)C(=O)O)n(C)c(=O)c3cc(OCc4ccc(Cl)s4)ccc23)cc(F)c2c1CCCO2 [Example 110, (2S)-2-(tert-butoxy)-2-{7-[(5-chlorothiophen-2-yl)methoxy]-4-(8-fluoro-5-methyl-3,4-dihydro-2H-1-benzopyran-6-yl)-2-methyl-1-oxo-1,2-dihydroisoquinolin-3-yl}acetic acid] | 40
17 | Cc1c(-c2c([C@H](OC(C)(C)C)C(=O)O)n(C)c(=O)c3cc(OCc4cccs4)ccc23)ccc2c1CCCO2 [Example 111, (2S)-2-(tert-butoxy)-2-[2-methyl-4-(5-methyl-3,4-dihydro-2H-1-benzopyran-6-yl)-1-oxo-7-(thiophen-2-ylmethoxy)-1,2-dihydroisoquinolin-3-yl]acetic acid] | 30
18 | Cc1c(-c2c([C@H](OC(C)(C)C)C(=O)O)n(C)c(=O)c3cc(OCc4ccc(Cl)s4)ccc23)ccc2c1CCCO2 [Example 112, (2S)-2-(tert-butoxy)-2-{7-[(5-chlorothiophen-2-yl)methoxy]-2-methyl-4-(5-methyl-3,4-dihydro-2H-1-benzopyran-6-yl)-1-oxo-1,2-dihydroisoquinolin-3-yl}acetic acid] | 50
19 | Cc1ccc(COc2ccc3c(-c4cc(F)c5c(c4C)CCCO5)c([C@H](OC(C)(C)C)C(=O)O)n(C)c(=O)c3c2)s1 [Example 113, (2S)-2-(tert-butoxy)-2-[4-(8-fluoro-5-methyl-3,4-dihydro-2H-1-benzopyran-6-yl)-2-methyl-7-[(5-methylthiophen-2-yl)methoxy]-1-oxo-1,2-dihydroisoquinolin-3-yl]acetic acid] | 30
20 | Cc1c(-c2c(C(OC(C)(C)C)C(=O)O)n(C)c(=O)c3cc(OC(F)F)ccc23)ccc2c1CCCO2 (centres unmarked) [Example 114, 2-(tert-butoxy)-2-[7-(difluoromethoxy)-2-methyl-4-(5-methyl-3,4-dihydro-2H-1-benzopyran-6-yl)-1-oxo-1,2-dihydroisoquinolin-3-yl]acetic acid] | 420
21 | Cc1ccc2c(-c3ccc4c(c3C)CCCO4)c([C@H](OC(C)(C)C)C(=O)O)n(C)c(=O)c2c1 [Example 115, (2S)-2-(tert-butoxy)-2-[2,7-dimethyl-4-(5-methyl-3,4-dihydro-2H-1-benzopyran-6-yl)-1-oxo-1,2-dihydroisoquinolin-3-yl]acetic acid] | 20
22 | CC(=O)N1CCOc2ccc(-c3c(C(OC(C)(C)C)C(=O)O)n(C)c(=O)c4ccccc34)c(Cl)c21 (centres unmarked) [Example 116, 2-[4-(4-acetyl-5-chloro-3,4-dihydro-2H-1,4-benzoxazin-6-yl)-2-methyl-1-oxo-1,2-dihydroisoquinolin-3-yl]-2-(tert-butoxy)acetic acid] | 33200
23 | Cc1c(-c2c(C(OC(C)(C)C)C(=O)O)n(C)c(=O)c3cc(OCCN4CCCC4)ccc23)ccc2c1CCCO2 (centres unmarked) [Example 117, 2-(tert-butoxy)-2-[2-methyl-4-(5-methyl-3,4-dihydro-2H-1-benzopyran-6-yl)-1-oxo-7-[2-(pyrrolidin-1-yl)ethoxy]-1,2-dihydroisoquinolin-3-yl]acetic acid] | 4090
24 | Cn1c(C(OC(C)(C)C)C(=O)O)c(-c2cnc3c(c2)CCCO3)c2ccccc2c1=O (centres unmarked) [Example 118, 2-(tert-butoxy)-2-(2-methyl-1-oxo-4-{2H,3H,4H-pyrano[2,3-b]pyridin-6-yl}-1,2-dihydroisoquinolin-3-yl)acetic acid] | 41600
25 | Cc1c(-c2c(C(OC(C)(C)C)C(=O)O)n(C)c(=O)c3cc(OCCN4CCOCC4)ccc23)ccc2c1CCCO2 (centres unmarked) [Example 119, 2-(tert-butoxy)-2-[2-methyl-4-(5-methyl-3,4-dihydro-2H-1-benzopyran-6-yl)-7-[2-(morpholin-4-yl)ethoxy]-1-oxo-1,2-dihydroisoquinolin-3-yl]acetic acid] | 2130
26 | COc1cc2c(=O)n(C)c(C(OC(C)(C)C)C(=O)O)c(-c3ccc4c(c3C)CCCO4)c2cc1C (centres unmarked) [Example 120, 2-(tert-butoxy)-2-[7-methoxy-2,6-dimethyl-4-(5-methyl-3,4-dihydro-2H-1-benzopyran-6-yl)-1-oxo-1,2-dihydroisoquinolin-3-yl]acetic acid] | 230
